Numbers after ± are expanded uncertainties.
Conditions: Liquid, Vibrating tube method

SMILES: CC(C)(N)CO [2-amino-2-methylpropan-1-ol]
- mass density (313.06 K, 1000 kPa): 931.4 ± 4.7 kg/m3
- mass density (313.06 K, 2000 kPa): 931.9 ± 4.7 kg/m3
- mass density (313.06 K, 3000 kPa): 932.4 ± 4.7 kg/m3
- mass density (313.06 K, 4000 kPa): 932.9 ± 4.7 kg/m3
- mass density (313.06 K, 5000 kPa): 933.5 ± 4.7 kg/m3
- mass density (313.06 K, 6000 kPa): 933.9 ± 4.8 kg/m3
- mass density (313.06 K, 7000 kPa): 934.5 ± 4.8 kg/m3
- mass density (313.06 K, 8000 kPa): 935 ± 4.8 kg/m3
- mass density (313.06 K, 9007 kPa): 935.5 ± 4.8 kg/m3
- mass density (313.06 K, 10003 kPa): 936 ± 4.8 kg/m3
- mass density (313.06 K, 11000 kPa): 936.6 ± 4.8 kg/m3
- mass density (313.06 K, 12000 kPa): 937 ± 4.8 kg/m3
- mass density (313.06 K, 13000 kPa): 937.6 ± 4.8 kg/m3
- mass density (313.06 K, 14000 kPa): 938.1 ± 4.8 kg/m3
- mass density (313.06 K, 15002 kPa): 938.6 ± 4.8 kg/m3
- mass density (313.06 K, 16000 kPa): 939.1 ± 4.8 kg/m3
- mass density (313.06 K, 17001 kPa): 939.7 ± 4.8 kg/m3
- mass density (313.06 K, 18002 kPa): 940.2 ± 4.8 kg/m3
- mass density (313.06 K, 19000 kPa): 940.6 ± 4.8 kg/m3
- mass density (313.06 K, 20029 kPa): 941.1 ± 4.9 kg/m3
- mass density (313.06 K, 21004 kPa): 941.7 ± 4.9 kg/m3
- mass density (313.06 K, 22004 kPa): 942.1 ± 4.9 kg/m3
- mass density (313.06 K, 24004 kPa): 943.1 ± 4.9 kg/m3
- mass density (322.98 K, 500 kPa): 922.7 ± 4.6 kg/m3
- mass density (322.98 K, 1000 kPa): 922.8 ± 4.6 kg/m3
- mass density (322.98 K, 2000 kPa): 923.4 ± 4.6 kg/m3
- mass density (322.98 K, 3000 kPa): 924 ± 4.6 kg/m3
- mass density (322.98 K, 4000 kPa): 924.5 ± 4.7 kg/m3
- mass density (322.98 K, 5000 kPa): 925.1 ± 4.7 kg/m3
- mass density (322.98 K, 6000 kPa): 925.7 ± 4.7 kg/m3
- mass density (322.98 K, 7000 kPa): 926.2 ± 4.7 kg/m3
- mass density (322.98 K, 8000 kPa): 926.8 ± 4.7 kg/m3
- mass density (322.98 K, 9007 kPa): 927.4 ± 4.7 kg/m3
- mass density (322.98 K, 10002 kPa): 927.8 ± 4.7 kg/m3
- mass density (322.98 K, 11000 kPa): 928.4 ± 4.7 kg/m3
- mass density (322.98 K, 12000 kPa): 928.9 ± 4.7 kg/m3
- mass density (322.98 K, 13000 kPa): 929.5 ± 4.7 kg/m3
- mass density (322.98 K, 14000 kPa): 930.1 ± 4.7 kg/m3
- mass density (322.98 K, 15003 kPa): 930.6 ± 4.7 kg/m3
- mass density (322.98 K, 16006 kPa): 931.1 ± 4.8 kg/m3
- mass density (322.98 K, 17001 kPa): 931.6 ± 4.8 kg/m3
- mass density (322.98 K, 18002 kPa): 932.1 ± 4.8 kg/m3
- mass density (322.98 K, 19000 kPa): 932.6 ± 4.8 kg/m3
- mass density (322.98 K, 20030 kPa): 933.2 ± 4.8 kg/m3
- mass density (322.98 K, 21005 kPa): 933.7 ± 4.8 kg/m3
- mass density (322.98 K, 22004 kPa): 934.1 ± 4.8 kg/m3
- mass density (322.98 K, 24004 kPa): 935.2 ± 4.8 kg/m3
- mass density (332.91 K, 500 kPa): 914 ± 4.5 kg/m3
- mass density (332.91 K, 1000 kPa): 914.4 ± 4.6 kg/m3
- mass density (332.91 K, 2000 kPa): 915 ± 4.6 kg/m3
- mass density (332.91 K, 3000 kPa): 915.6 ± 4.6 kg/m3
- mass density (332.91 K, 4000 kPa): 916.1 ± 4.6 kg/m3
- mass density (332.91 K, 5000 kPa): 916.7 ± 4.6 kg/m3
- mass density (332.91 K, 6000 kPa): 917.3 ± 4.6 kg/m3
- mass density (332.91 K, 7000 kPa): 918 ± 4.6 kg/m3
- mass density (332.91 K, 8000 kPa): 918.5 ± 4.6 kg/m3
- mass density (332.91 K, 9009 kPa): 919.1 ± 4.6 kg/m3
- mass density (332.91 K, 10003 kPa): 919.7 ± 4.6 kg/m3
- mass density (332.91 K, 11002 kPa): 920.2 ± 4.6 kg/m3
- mass density (332.91 K, 12001 kPa): 920.8 ± 4.6 kg/m3
- mass density (332.91 K, 13000 kPa): 921.3 ± 4.7 kg/m3
- mass density (332.91 K, 14000 kPa): 921.9 ± 4.7 kg/m3
- mass density (332.91 K, 15002 kPa): 922.4 ± 4.7 kg/m3
- mass density (332.91 K, 16001 kPa): 923 ± 4.7 kg/m3
- mass density (332.91 K, 17001 kPa): 923.5 ± 4.7 kg/m3
- mass density (332.91 K, 18002 kPa): 924.1 ± 4.7 kg/m3
- mass density (332.91 K, 19000 kPa): 924.6 ± 4.7 kg/m3
- mass density (332.91 K, 20030 kPa): 925.2 ± 4.7 kg/m3
- mass density (332.91 K, 21002 kPa): 925.6 ± 4.7 kg/m3
- mass density (332.91 K, 22004 kPa): 926.2 ± 4.7 kg/m3
- mass density (332.91 K, 23000 kPa): 926.7 ± 4.7 kg/m3
- mass density (332.91 K, 24004 kPa): 927.3 ± 4.7 kg/m3
- mass density (342.84 K, 500 kPa): 905.4 ± 4.5 kg/m3
- mass density (342.84 K, 1000 kPa): 905.7 ± 4.5 kg/m3
- mass density (342.84 K, 2000 kPa): 906.4 ± 4.5 kg/m3
- mass density (342.84 K, 3000 kPa): 907 ± 4.5 kg/m3
- mass density (342.84 K, 4000 kPa): 907.6 ± 4.5 kg/m3
- mass density (342.84 K, 5000 kPa): 908.3 ± 4.5 kg/m3
- mass density (342.84 K, 6000 kPa): 908.9 ± 4.5 kg/m3
- mass density (342.84 K, 7000 kPa): 909.5 ± 4.5 kg/m3
- mass density (342.84 K, 8001 kPa): 910.1 ± 4.5 kg/m3
- mass density (342.84 K, 9009 kPa): 910.7 ± 4.5 kg/m3
- mass density (342.84 K, 10003 kPa): 911.3 ± 4.6 kg/m3
- mass density (342.84 K, 11001 kPa): 911.9 ± 4.6 kg/m3
- mass density (342.84 K, 12000 kPa): 912.5 ± 4.6 kg/m3
- mass density (342.84 K, 13000 kPa): 913.1 ± 4.6 kg/m3
- mass density (342.84 K, 14000 kPa): 913.6 ± 4.6 kg/m3
- mass density (342.84 K, 15003 kPa): 914.3 ± 4.6 kg/m3
- mass density (342.84 K, 16001 kPa): 914.8 ± 4.6 kg/m3
- mass density (342.84 K, 17001 kPa): 915.3 ± 4.6 kg/m3
- mass density (342.84 K, 18002 kPa): 915.9 ± 4.6 kg/m3
- mass density (342.84 K, 19000 kPa): 916.5 ± 4.6 kg/m3
- mass density (342.84 K, 20030 kPa): 917.1 ± 4.6 kg/m3
- mass density (342.84 K, 21005 kPa): 917.6 ± 4.6 kg/m3
- mass density (342.84 K, 22004 kPa): 918.1 ± 4.7 kg/m3
- mass density (342.84 K, 23000 kPa): 918.7 ± 4.7 kg/m3
- mass density (342.84 K, 24004 kPa): 919.2 ± 4.7 kg/m3
- mass density (352.79 K, 500 kPa): 896.8 ± 4.4 kg/m3
- mass density (352.79 K, 1000 kPa): 897.2 ± 4.4 kg/m3
- mass density (352.79 K, 2000 kPa): 897.9 ± 4.4 kg/m3
- mass density (352.79 K, 3000 kPa): 898.5 ± 4.4 kg/m3
- mass density (352.79 K, 4001 kPa): 899.2 ± 4.4 kg/m3
- mass density (352.79 K, 5000 kPa): 899.9 ± 4.4 kg/m3
- mass density (352.79 K, 6000 kPa): 900.5 ± 4.4 kg/m3
- mass density (352.79 K, 7001 kPa): 901.2 ± 4.5 kg/m3
- mass density (352.79 K, 8000 kPa): 901.8 ± 4.5 kg/m3
- mass density (352.79 K, 9009 kPa): 902.4 ± 4.5 kg/m3
- mass density (352.79 K, 10003 kPa): 903.1 ± 4.5 kg/m3
- mass density (352.79 K, 11001 kPa): 903.7 ± 4.5 kg/m3
- mass density (352.79 K, 12000 kPa): 904.3 ± 4.5 kg/m3
- mass density (352.79 K, 13001 kPa): 904.9 ± 4.5 kg/m3
- mass density (352.79 K, 14000 kPa): 905.5 ± 4.5 kg/m3
- mass density (352.79 K, 15002 kPa): 906.1 ± 4.5 kg/m3
- mass density (352.79 K, 16001 kPa): 906.7 ± 4.5 kg/m3
- mass density (352.79 K, 17001 kPa): 907.4 ± 4.5 kg/m3
- mass density (352.79 K, 18002 kPa): 907.9 ± 4.6 kg/m3
- mass density (352.79 K, 18997 kPa): 908.5 ± 4.6 kg/m3
- mass density (352.79 K, 20030 kPa): 909.1 ± 4.6 kg/m3
- mass density (352.79 K, 21001 kPa): 909.7 ± 4.6 kg/m3
- mass density (352.79 K, 22004 kPa): 910.3 ± 4.6 kg/m3
- mass density (352.79 K, 23000 kPa): 910.9 ± 4.6 kg/m3
- mass density (352.79 K, 24004 kPa): 911.4 ± 4.6 kg/m3
- mass density (362.65 K, 504 kPa): 888 ± 4.3 kg/m3
- mass density (362.65 K, 1002 kPa): 888.4 ± 4.3 kg/m3
- mass density (362.65 K, 2000 kPa): 889 ± 4.3 kg/m3
- mass density (362.65 K, 3000 kPa): 889.7 ± 4.3 kg/m3
- mass density (362.65 K, 4000 kPa): 890.5 ± 4.3 kg/m3
- mass density (362.65 K, 5000 kPa): 891.2 ± 4.4 kg/m3
- mass density (362.65 K, 6000 kPa): 891.8 ± 4.4 kg/m3
- mass density (362.65 K, 7000 kPa): 892.5 ± 4.4 kg/m3
- mass density (362.65 K, 8001 kPa): 893.2 ± 4.4 kg/m3
- mass density (362.65 K, 9010 kPa): 893.9 ± 4.4 kg/m3
- mass density (362.65 K, 10003 kPa): 894.6 ± 4.4 kg/m3
- mass density (362.65 K, 11001 kPa): 895.2 ± 4.4 kg/m3
- mass density (362.65 K, 12000 kPa): 895.8 ± 4.4 kg/m3
- mass density (362.65 K, 13001 kPa): 896.5 ± 4.4 kg/m3
- mass density (362.65 K, 14000 kPa): 897.1 ± 4.4 kg/m3
- mass density (362.65 K, 15003 kPa): 897.8 ± 4.5 kg/m3
- mass density (362.65 K, 16001 kPa): 898.4 ± 4.5 kg/m3
- mass density (362.65 K, 17000 kPa): 899.1 ± 4.5 kg/m3
- mass density (362.65 K, 18002 kPa): 899.7 ± 4.5 kg/m3
- mass density (362.65 K, 19000 kPa): 900.3 ± 4.5 kg/m3
- mass density (362.65 K, 20030 kPa): 901 ± 4.5 kg/m3
- mass density (362.65 K, 21004 kPa): 901.6 ± 4.5 kg/m3
- mass density (362.65 K, 22004 kPa): 902.2 ± 4.5 kg/m3
- mass density (362.65 K, 23000 kPa): 902.8 ± 4.5 kg/m3
- mass density (362.65 K, 24003 kPa): 903.3 ± 4.5 kg/m3

Reference: the NIST ThermoML archive (doi:10.1021/je700406p)
